Read-outs that look alike come from different tables or passages of the source.

The subject of data set [1] is U937 human hematological cancer cells. In words: Proliferation and survival of U937 cells, PI staining / FACS, 72 hours. The data set is classed as cell-based. As for the experimental part:
U937 human hematological cancer cells were cultured in RPMI supplemented with 10% FCS. […] Azacitidine (AZA) was added to the cell cultures at 5 different concentrations: 0, 100, 250, 1000, 5000 nM. […] All groups were analyzed in triplicates. […] The percentage of inhibition was calculated.

Data set [2] concerns Molt-4 human leukemia cell line. In words: Molt-4 cell proliferation, MTT assay, 72 hr. It counts as cell-based. As for the experimental part: Molt-4 human leukemia cell line was obtained from ATCC. The cells were grown in RPMI medium containing 10% FBS and 1% glutamine Cells were seeded in 96-well plates, 50,000 cells/ml, 0.2 ml per well. Test substances were diluted in PBS and added in final concentrations of 0.1 nM to 10 μM, in a volume of 20 μl. The study was conducted in triplicates. PBS was used as a control. Plates were incubated for 72 hr at 37° C. with 5% CO2. At the end of the treatment period, a MTT assay using the MTT reagent [3-(4,5-dimethylthiazol-2-yl)-2,5-diphenyltetrazolium bromide] was performed. MTT was added to each well at a concentration of 5 mg/ml in a volume of 0.02 ml. Plates were incubated at 37° C. for 3 hours. The plates were centrifuged at 3500 rpm for 5 minutes and the supernatant was aspirated. The pellets which contained MTT crystals were each dissolved in 0.2 ml DMSO. Absorbance was determined using ELISA reader at a wavelength of 570 nm.

For the next data set, the system named is U937 leukemia cells. In words: Animal model of leukemia: NSG mice injected IV with U937 cells. It counts as in vivo, NOD scid gamma (NSG) mice. As to conditions: for Spleen size / weight compared to the control mice: s.c. daily, FIG. 4. As for the experimental part:
The effect of BST-236 in combination with azacytidine on the survival of U937 leukemia cells in vivo was next examined NOD scid gamma (NSG) mice were irradiated with 200 rad, 24 hours before injection with U937 cells. On Day 0, mice (4-5 animals per group), were injected intravenously (IV) with 7×10^6 U937 cells in a total volume of 200 μL PBS. On Days 16-22 (7 days, first study) or 13-18 (6 days, second study), mice were daily injected subcutaneously (s.c.) with BST-236 (5 mg/mouse; ˜250 mg/kg), azacytidine (designated AZA; 6 mg/kg), or BST-236 (5 mg/mouse; ˜250 mg/kg) and AZA (6 mg/kg). Twenty-four hours after the last injection, mice were sacrificed, and spleen, blood, and bone marrow were analyzed for mouse and human CD45^+ cells using fluorescence-activated cell sorting (FACS).
Given that finding, experiments will be performed using even lower doses of BST-236 to evaluate synergistic activity with, e.g., AZA. It is, for example, expected that 20 mg/kg BST-236 will be efficacious. Accordingly, in a particular embodiment, NSG mice will be dosed with 20 mg/kg BST-236 alone, 6 mg/kg AZA alone, or a combination of 20 mg/kg BST-236 and 6 mg/kg AZA to investigate synergistic activity with this dosing regimen. It is understood that synergistic activity may also be observed at lower doses of AZA in combination with 20 mg/kg BST-236.

For another data set, the system named is U937 cells. Nature of the data set: Activity of BST-236 on U937 cells, 48 hr, 10% FCS (Table 3). It counts as cell-based, human.
The next data set has as its system Molt-4 cells. In words: Activity of Asp-Cytarabine/BST-236 on Molt-4 cells, 48 hr, 10% FCS (Table 5). It counts as cell-based, human.
Data set [3] can be described thus: PK analysis from Phase I/II studies after infusion. It counts as in vivo. An excerpt:
Accordingly, synergistic interactions may be observed within […] administration of BST-236.

The mark [4] stands for this setting: BST-236 5 mg/mouse, AZA 6 mg/kg.

For the compound `Nc1ncn([C@@H]2O[C@H](CO)[C@@H](O)[C@H]2O)c(=O)n1` [Azacitidine], the “% inhibition (growth inhibition of U937 cells)” value in data set [1] (AZA 100 nM alone) is 1.68%; in data set [1] (AZA 250 nM alone), −3.60%; in data set [1] (AZA 1000 nM alone) it was 0.60%; in data set [1] (AZA 5000 nM alone) it was 4.30%. In data set [2], this compound displayed an IC50 of 2110 nM. In addition, the “Spleen size / weight compared to the control mice” value in the data set on U937 leukemia cells (setting [4]) was “reduced spleen size”. In the data set on U937 leukemia cells (first study, AZA 6 mg/kg s.c. daily Days 16-22, sacrifice on Day 23), the “Animals that died before the scheduled sacrifice” value was 1/4.
Take `NC(CC(=O)Nc1ccn([C@@H]2O[C@H](CO)C(O)C2O)c(=O)n1)C(=O)O` (stereo partly shown) [Asp-Cytarabine]: in data set [1] (BST236 250 nM alone), the “% inhibition (growth inhibition of U937 cells)” value was determined as 19.1%. For the same compound, the “Activity on U937 cells (count)” value in the data set with U937 cells (1 nM, 48 hr, 10% FCS) was found to be 16958; in the data set on U937 cells (10 nM, 48 hr, 10% FCS) it was 16994; with U937 cells (50 nM, 48 hr, 10% FCS), 15769.67; in the data set with U937 cells (100 nM, 48 hr, 10% FCS), 15228.33333; in the data set on U937 cells (250 nM, 48 hr, 10% FCS) it was 14819.67; with U937 cells (1000 nM, 48 hr, 10% FCS), 6185.667. The “Activity on U937 cells (count)” value in the data set with U937 cells (5000 nM, 48 hr, 10% FCS) came to 2116. The inhibition at 0.001 µM in the data set with U937 cells (Homo sapiens, U-937, 1 nM, 48 hr, 10% FCS, read-out: Activity on U937 cells (inhibition relative to 0)) was -2.27%; with Molt-4 cells (Homo sapiens, MOLT-4, 1 nM, 48 hr, 10% FCS, read-out: Activity on Molt-4 cells (inhibition relative to 0)), 1.88%. For the same compound, the inhibition at 0.01 µM is -2.49% with U937 cells (Homo sapiens, U-937, 10 nM, 48 hr, 10% FCS, read-out: Activity on U937 cells (inhibition relative to 0)); less than 10% with Molt-4 cells (Homo sapiens, MOLT-4, 10 nM Asp-Cytarabine, read-out: inhibition of Molt-4 cells); 7.21% with Molt-4 cells (Homo sapiens, MOLT-4, 10 nM, 48 hr, 10% FCS, read-out: Activity on Molt-4 cells (inhibition relative to 0)). Further, the inhibition at 0.05 µM with U937 cells (Homo sapiens, U-937, 50 nM, 48 hr, 10% FCS, read-out: Activity on U937 cells (inhibition relative to 0)) was determined as 4.9%; in the data set on Molt-4 cells (Homo sapiens, MOLT-4, 50 nM, 48 hr, 10% FCS, read-out: Activity on Molt-4 cells (inhibition relative to 0)) it was 25.5%. The inhibition at 0.1 µM in the data set with U937 cells (Homo sapiens, U-937, 100 nM, 48 hr, 10% FCS, read-out: Activity on U937 cells (inhibition relative to 0)) is 8.16%; in the data set with Molt-4 cells (Homo sapiens, MOLT-4, 100 nM, 48 hr, 10% FCS, read-out: Activity on Molt-4 cells (inhibition relative to 0)), 37.3%. In addition, the inhibition at 0.25 µM in the data set with U937 cells (Homo sapiens, U-937, 250 nM Asp-Cytarabine administered alone, read-out: inhibition of U937 cells) was less than 20%; with U937 cells (Homo sapiens, U-937, 250 nM, 48 hr, 10% FCS, read-out: Activity on U937 cells (inhibition relative to 0)), 10.6%; in the data set on Molt-4 cells (Homo sapiens, MOLT-4, 250 nM, 48 hr, 10% FCS, read-out: Activity on Molt-4 cells (inhibition relative to 0)), 50%. Further, the inhibition at 1 µM with U937 cells (Homo sapiens, U-937, 1000 nM, 48 hr, 10% FCS, read-out: Activity on U937 cells (inhibition relative to 0)) worked out at 62.7%; with Molt-4 cells (Homo sapiens, MOLT-4, 1000 nM, 48 hr, 10% FCS, read-out: Activity on Molt-4 cells (inhibition relative to 0)) it was 83.5%. Moreover, the inhibition at 5 µM stood at 87.2% in the data set with U937 cells (Homo sapiens, U-937, 5000 nM, 48 hr, 10% FCS, read-out: Activity on U937 cells (inhibition relative to 0)) and 89.3% in the data set with Molt-4 cells (Homo sapiens, MOLT-4, 5000 nM, 48 hr, 10% FCS, read-out: Activity on Molt-4 cells (inhibition relative to 0)). In data set [2], the IC50 was 47 nM. Also, the “Activity on Molt-4 cells (count)” value in the data set on Molt-4 cells (1 nM, 48 hr, 10% FCS) worked out at 18778.00; with Molt-4 cells (10 nM, 48 hr, 10% FCS), 17759.00; with Molt-4 cells (50 nM, 48 hr, 10% FCS), 14258.67; in the data set with Molt-4 cells (100 nM, 48 hr, 10% FCS), 12006.67; in the data set with Molt-4 cells (250 nM, 48 hr, 10% FCS), 9572.00; in the data set on Molt-4 cells (1000 nM, 48 hr, 10% FCS), 3156.33. Further, the “Activity on Molt-4 cells (count)” value with Molt-4 cells (5000 nM, 48 hr, 10% FCS) stood at 2037.33. Moreover, the “Spleen size / weight compared to the control mice” value in the data set with U937 leukemia cells (setting [4]) was “reduced spleen size”. In addition, the “Animals that survived until the scheduled sacrifice” value in the data set on U937 leukemia cells (first study, s.c. daily Days 16-22, sacrifice on Day 23, BST-236 5 mg/mouse, AZA 6 mg/kg) is 4/4. Further, the “Concentration decline following infusion cessation” value in data set [3] (Phase I/II studies) is reported as “rapidly declined in an apparent biphasic manner”. The “Concentration relative to the peak” value in data set [3] (at 6-10 hours from the completion of the infusion) is listed as ≤ 5 % of the peak.
